In patent US12616680B2 (CONSEJO SUPERIOR DE INVESTIGACIONES CIENTÍFICAS (CSIC), priority 2019, dated 2026):

System: R6/1 mice
Settings: oral in drinking water from 3 weeks of age, open field at 13 weeks, rotarod at 18 weeks, biotin 10 mg/kg/day or thiamine 200 mg/kg/day, given separately, FIG. 6A-B

How did the “effect on hypoactivity (open field, distance covered) and motor coordination deficit (rotarod, time to fall)” value turn out when `Cc1ncc(C[n+]2csc(CCO)c2C)c(N)n1` [thiamine] was run?
The value was “only showed improving trends in some of the behavioural tests”.
